Key:
Type in all cases: in vivo, human
[1] = Safety (treatment-related adverse events), CC-90010-GBM-001
Excerpt: (§1) The primary objectives of the study in this example were determination of tumor tissue concentration and plasma pharmacokinetics (PK) of Compound A. The secondary and exploratory objectives included safety, antitumor activity, cerebrospinal fluid concentration, and pharmacodynamics (PD).
The study described in this example (CC-90010-GBM-001 study/NCT04047303) enrolled patients with progressive or recurrent astrocytoma or recurrent glioblastoma who have failed radiation and chemotherapy, and who are candidates for surgical tumor resection as part of their salvage regimen.
(§2) Patients were treated with Compound A at 30 mg daily on Day 1 to Day 4 prior to undergoing indicated tumor resection and to maintain platelet count above the minimum of […] recommended for surgery (Part A, preoperative treatment). Following recovery from surgery and a minimum of 4 weeks from the first dose of Compound A, subjects who were fit to continue were treated with Compound A at 45 mg on a 4 days on/24 days off schedule (180 mg per 28-day cycle). Maintenance treatment continued until disease progression, unacceptable toxicity, or withdrawal of consent.

[2] = system: HEXIM1 (hexamethylene bis-acetamide-inducible protein 1) mRNA; experiment: Blood and tumor HEXIM1 mRNA pharmacodynamics, CC-90010-GBM-001
Description: as §1, §2
(§3) Blood HEXIM1 (hexamethylene bis-acetamide-inducible protein 1) mRNA was increased at 72-96 hours following first dose, and the percentage increase correlated with plasma concentration of Compound A at surgery. Tumor HEXIM1 RNA increased in 10 of 11 patients. Additionally, blood HEXIM1 mRNA expression was increased in all subjects at 72-96 hours following the first dose. Percentage HEXIM1 increase was related to plasma Compound A concentration at biopsy.

newly diagnosed GBM = experiment: Efficacy (duration of treatment, PFS, best overall response), CC-90010-GBM-002 Part A
Excerpt: The Response Assessment in Neuro-Oncology criteria (RANO) is used to assess response to first-line treatment of glioblastoma. See, Leao, D. J. et al., American Journal of Neuroradiology 2019, 1-11. The RANO criteria divides response into four types of response based on imaging (MRI) and clinical features: (1) complete response (CR); (2) partial response (PR); (3) stable disease (SD); and (4) progression. For this assessment, a measurable disease is defined as bidimensional contrast-enhancing lesions with clearly defined margins, with 2 perpendicular diameters of at least 10 mm, visible on ≥2 axial slices. The nonmeasurable disease is defined as either unidimensional measurable lesions, masses with margins not clearly defined as frequently noted in the surgical margins, or lesions with maximal perpendicular diameters of <10 mm.
The study described in this example (CC-90010-GBM-002/NCT04324840) is a phase 1B dose-finding study investigating standard of care of Compound A in combination with TMZ with or without radiotherapy (RT) in subjects with newly diagnosed GBM. Part A of the study is escalating the oral doses of Compound A in combination with adjuvant TMZ to estimate the MTD and/or the RP2D of Compound A as adjuvant therapy and escalating the oral doses of Compound A in combination with concomitant TMZ+radiotherapy (RT) to estimate the MTD and/or the RP2D of Compound A as concomitant therapy. Part B of the study is the safety and efficacy of Compound A administered at or below the MTD determined for the adjuvant therapy (AT) and concomitant therapy (CT).
For adjuvant therapy, Compound A and TMZ was administered for 6 cycles, then Compound A as a monotherapy was administered in 28-day cycles until disease progression, start of a new anticancer therapy, or withdrawal of consent or physician's decision. For adjuvant therapy, Compound A was administered at 15, 30, and 45 mg 4 days on/24 days off and TMZ was administered at 150 or 200 mg/m^2 QD Days 1-5, followed by Compound A at 45 mg 4 days on/24 days off. For adjuvant therapy, part B, Compound A was administered at RP2D and TMZ was administered at 150 or 200 mg/m^2, followed by Compound A at 45 mg 4 days on/24 days off.
For concomitant therapy, Compound A, TMZ, and RT were administered for 6 weeks, then 4-week break, followed by adjuvant Compound A and TMZ for 6 cycles then Compound A monotherapy in 28-day cycles until disease progression, start of a new anticancer therapy, withdrawal of consent or physician's decision. For concomitant therapy, part A, Compound A was administered at 15 mg or 30 mg QD Days 1-4 (weeks 1,5), TMZ was administered at 75 mg/m^2/day QD, and RT was administered at 2 Gy QD×5 days/week, for 42 days. This was then followed by a break in treatment therapy, e.g., from 1 to up to 4 weeks. Thereafter, adjuvant therapy was initiated by administering Compound A at 30 mg or 45 mg and TMZ at 150 or 200 mg/m^2 QD Days 1-5 of a 28-day cycle. Adjuvant therapy cycles were repeated from 2 to 6 times. After adjuvant therapy, was a monotherapy treatment. Monotherapy comprised administering Compound A at 45 mg 4 days on/24 days off.
For Part A, eighteen patients were enrolled in the adjuvant cohort and received adjuvant Compound A 15 mg/day (n=5), 30 mg/day (n=6), or 45 mg/day (n=7) 4 days on/24 days off plus TMZ followed by Compound A monotherapy 45 mg/day 4 days on/24 days off. Fourteen patients were enrolled in the concomitant cohort and received concomitant Compound A 15 mg/day (n=6) or 30 mg/day (n=8) 4 days on/24 days off in combination with TMZ and RT, followed by adjuvant Compound A 30 mg/day 4 days on/24 days off and Compound A monotherapy 45 mg/day 4 days on/24 days off. The demographics and characteristics of treated patients are described in the below table.

[3] = system: CCR1 (C-C chemokine receptor type 1) mRNA; experiment: Blood CCR1 mRNA pharmacodynamics, CC-90010-GBM-001
Description: as §1, §2, §3

With Cn1cc(-c2cc(S(C)(=O)=O)ccc2OCC2CC2)c2ccccc2c1=O [Compound A, 4-[2-(cyclopropylmethoxy)-5-methylsulfonylphenyl]-2-methylisoquinolin-1-one] the “patients with Grade 3/4 TRAEs” value ([1]; N=20) was 45%, the “patients with grade 3/4 thrombocytopenia” value ([1]; N=20) was 25% and the “patients with serious TRAEs (hemiparesis and lethargy)” value ([1]; N=20) was “one”. The “patients with ≥1 treatment-related adverse event (TRAE)” value ([1]; N=20) was 90%, the “tolerability” value ([1]; in vivo) was “well tolerated” and the “Blood HEXIM1 mRNA change” value ([2]; 72-96 hours following first dose) was “increased”. For the same compound, the “HEXIM1 mRNA increased in resected brain tumor tissue versus archival tissue, patients” value ([2]; group P=0.00093) was 15 of 18, the “Tumor HEXIM1 RNA increased, patients” value ([2]; tumor) was 10 of 11 and the “best overall response: CR” value (newly diagnosed GBM; adjuvant cohort) was 6%. The “best overall response: NE” value (newly diagnosed GBM; adjuvant cohort) was 6%, the “best overall response: PD” value (newly diagnosed GBM; adjuvant cohort) was 11% and the “best overall response: SD” value (newly diagnosed GBM; adjuvant cohort) was 78%. The “median PFS” value (newly diagnosed GBM; adjuvant cohort, 95% CI 3.9-NE) was 7.7 months, the “progression-free survival (PFS) rate at 6 months” value (newly diagnosed GBM; adjuvant cohort, 95% CI 31.1-77.3) was 57.8% and the “best overall response: CR” value (newly diagnosed GBM; concomitant cohort) was 7%. For the same compound, the “best overall response: NE” value (newly diagnosed GBM; concomitant cohort) was 7%, the “best overall response: PD” value (newly diagnosed GBM; concomitant cohort) was 7% and the “best overall response: SD” value (newly diagnosed GBM; concomitant cohort) was 79%. For the same compound, the “median PFS” value (newly diagnosed GBM; concomitant cohort, 95% CI 5.2-14.0) was 12.3 months, the “PFS rate at 6 months” value (newly diagnosed GBM; concomitant cohort, 95% CI 37.3-87.2) was 69.2% and the “Blood CCR1 mRNA reduction” value ([3]; after Dose 4) was no less than 50%. The “Blood CCR1 mRNA, % of baseline” value ([3]; after Dose 4, standard deviation 28.5) was 45.8% and the CCR1 downregulation ([3]; following first and last dose of ≥30 mg, cycle 1, CC-90010-GBM-001 (FIG. 5)) was no less than 50%.
